Test results reported in patent publication US20170368082A1, “FORMULATIONS OF BRINCIDOFOVIR” (priority 2016, published 2017).

Assay: Blood and plasma pharmacokinetics of total radioactivity after IV or oral [^14C]brincidofovir
Assay type: in vivo, male Sprague Dawley and Long-Evans rats
Description: The study utilized 4 groups of male SD rats (albino), and 3 groups of male LE rats (pigmented); a total of 39 rats. All animals were obtained from Hilltop Lab Animals, Inc. (Scottdale, Pa.). Rats weighed between 214 and 265 g at dosing. Rats in Groups 1, 2, 3, and 4 were administered a single 2-hour (h) IV infusion of [^14C]brincidofovir at a target dose of 15 mg/kg. Rats in Group 5 were administered a single 2-h IV infusion of [^14C]brincidofovir at a target dose of 2 mg/kg. Rats in Group 6, and 7 were administered a single oral gavage administration of [^14C]brincidofovir at a target dose of 15 mg/kg. Three dosing formulations (one for high dose IV, one for low dose IV, and one for PO dose) were prepared at QPS on the day of dosing. The IV formulation for Groups 1, 2, 3, and 4 contained a vehicle of 10 mM sodium phosphate buffer in 5% dextrose solution at pH 8.0(±0.1). The IV formulation for Group 5 contained a vehicle of 16 mM sodium phosphate buffer in 5% dextrose solution at pH 8.0(±0.1), and the PO dosing formulation contained a vehicle of 12.5 mM sodium phosphate buffer at pH 8.0(±0.1). The IV dose formulation for Group 5 and the PO dose formulation for Groups 6 and 7 contained higher concentration of buffer so that the final buffer concentration was approximately 10 mM in all dose formulations.
Blood was collected from each animal in Group 2 (IV infusion) for plasma and blood analysis at the times listed below.
Terminal blood samples were collected by cardiac puncture into pre-labeled blood collection tubes that contained K2EDTA as an anticoagulant. A terminal sample (N=1 per time point) was collected at 0.5, 1, 2, 4, 8, 24, and 72 h after initiation of infusion and the volume was not limited. Triplicate weighed aliquots of blood (0.100 g) were removed and analyzed for total radioactivity using combustion followed by LSC. Blood aliquots were maintained at approximately 4° C. until analysis. The remaining blood samples were maintained on wet ice (approximately 4° C.) and then centrifuged to obtain plasma within 1 h of the blood collection time. Centrifuge settings were recorded in the study notebook. Duplicate aliquots of plasma (0.050 mL) were analyzed for radioactivity using direct counting by LSC, and residual plasma was stored at approximately −70° C. and was saved for possible future analysis under a separate study protocol. Residual red blood cells and the animal carcasses of Group 2 rats were discarded as radioactive waste.
Each rat was deeply anesthetized via isoflurane anesthesia, a blood sample was collected by cardiocentesis (approximately 2 mL) into tubes that contained K2EDTA as the anticoagulant, and the rat was euthanized by being frozen in a hexane/solid carbon dioxide bath for at least 15 min. The blood samples were maintained on wet ice (approximately 4° C.) and then centrifuged to obtain plasma within 1 h of the blood collection time. Centrifuge settings were recorded in the study notebook. Duplicate aliquots of plasma (0.050 mL) were analyzed for radioactivity using direct counting by LSC, and residual plasma was stored at approximately −70° C. and was saved for possible future analysis under a separate study protocol. Residual red blood cells were discarded as radioactive waste.
Triplicate weighed aliquots (˜0.100 g) of blood aliquots (Group 2 only) were combusted in the Packard Sample Oxidizer, followed by LSC analysis.
Urine (0.300 mL), and plasma (0.050 mL) specimens were thawed, if necessary, then aliquoted in duplicate by volume and analyzed by LSC. Volumes or weights of sample aliquots were documented in the study records. Ultima Gold scintillation fluid (5 mL, PerkinElmer) was added to each urine, and plasma aliquot, aliquot were mixed thoroughly, and then analyzed by LSC for radioactivity.

[1] = Plasma (LSC), PO 15 mg/kg, Group 7
[2] = Plasma (by LSC), 15 mg/kg, Group 7 vs Group 4
[3] = 0.5 h, SD rats Group 2, 15 mg/kg IV
[4] = 1 h, SD rats Group 2, 15 mg/kg IV
[5] = 2 h, SD rats Group 2, 15 mg/kg IV
[6] = 4 h, SD rats Group 2, 15 mg/kg IV
[7] = 8 h, SD rats Group 2, 15 mg/kg IV
[8] = 24 h, SD rats Group 2, 15 mg/kg IV
[9] = 72 h, SD rats Group 2, 15 mg/kg IV
[10] = Blood, SD rats Group 2, 15 mg/kg IV
[11] = Plasma, SD rats Group 2, 15 mg/kg IV
[12] = SD rats Group 2, 15 mg/kg 2-h IV

CCCCCCCCCCCCCCCCOCCCOP(=O)(O)CO[C@H](CO)Cn1ccc(N)nc1=O [[14C]brincidofovir]
AUCall [1]: 22.3885 μg equiv · h/g | Tmax [1]: 8 h

CCCCCCCCCCCCCCCCOCCCOP(=O)(O)CO[C@H](CO)Cn1ccc(N)nc1=O [[^14C] brincidofovir]
AUCall [1]: 22.3885 μg equiv · h/g | AUCall Ratio (PO/IV) [2]: 0.62 | Cmax Ratio (PO/IV) [2]: 0.30 | AUCall (Plasma (by LSC), 2 h IV infusion 15 mg/kg, Group 4): 36.3690 μg equiv · h/g | Tissue Concentration (168 h) (Plasma (by LSC), 2 h IV infusion 15 mg/kg, Group 4, LLOQ 0.036): BQL | Tissue Concentration (168 h) (Plasma (by LSC), PO 15 mg/kg, Group 7, LLOQ 0.034): BQL

CCCCCCCCCCCCCCCCOCCCOP(=O)(O)CO[C@H](CO)Cn1ccc(N)nc1=O [[^14C]brincidofovir]
Plasma t1/2 (15 mg/kg PO): approximately 5 h | Blood Concentration [3]: 1.666 μg equiv/mL | Blood to Plasma Ratio [3]: 0.65 | Plasma Concentration [3]: 2557 ng/mL | Blood Concentration [4]: 3.017 μg equiv/mL | Blood to Plasma Ratio [4]: 0.65 | Plasma Concentration [4]: 4609 ng/mL | Blood Concentration [5]: 6.393 μg equiv/mL | Blood to Plasma Ratio [5]: 0.62 | Plasma Concentration [5]: 10297 ng/mL | Blood Concentration [6]: 3.845 μg equiv/mL | Blood to Plasma Ratio [6]: 0.72 | Plasma Concentration [6]: 5363 ng/mL | Blood Concentration [7]: 1.584 μg equiv/mL | Blood to Plasma Ratio [7]: 0.81 | Plasma Concentration [7]: 1961 ng/mL | Blood Concentration [8]: 0.294 μg equiv/mL | Blood to Plasma Ratio [8]: 1.26 | Plasma Concentration [8]: 234 ng/mL | Blood Concentration [9]: 0.057 μg equiv/mL | Blood to Plasma Ratio [9]: 1.27 | Plasma Concentration [9]: 45 ng/mL | Blood to Plasma Ratio (72 hours, 2 mg/kg IV): 1.42 | Blood to Plasma Ratio (72 hours, 15 mg/kg IV): 3.06 | AUCall [10]: 50.836 μg equiv-h/mL | AUCinf—obs [10]: 52.028 μg equiv-h/mL | AUClast [10]: 50.836 μg equiv-h/mL | Cmax [10]: 6.393 μg equiv/mL | Tmax [10]: 2 h | t1/2 [10]: 14.5 h | Blood to Plasma Ratio (Group 2 SD rats, 24 h): 1.26 | Blood to Plasma Ratio (Group 2 SD rats, 72 h): 1.27 | Blood:Plasma Ratio (Group 3/SD, IV 15 mg/kg, 2 h): 0.96 | Blood:Plasma Ratio (Group 3/SD, IV 15 mg/kg, 24 h): 1.23 | Blood:Plasma Ratio (Group 4/LE, IV 15 mg/kg, 1 h): 1.10 | Blood:Plasma Ratio (Group 4/LE, IV 15 mg/kg, 2 h): 1.08 | Blood:Plasma Ratio (Group 4/LE, IV 15 mg/kg, 4 h): 0.92 | Blood:Plasma Ratio (Group 4/LE, IV 15 mg/kg, 8 h): 1.39 | Blood:Plasma Ratio (Group 4/LE, IV 15 mg/kg, 24 h): 1.46 | Blood:Plasma Ratio (Group 4/LE, IV 15 mg/kg, 72 h): 3.06 | Blood:Plasma Ratio (Group 5/LE, IV 2 mg/kg, 2 h): 0.89 | Blood:Plasma Ratio (Group 5/LE, IV 2 mg/kg, 8 h): 1.03 | Blood:Plasma Ratio (Group 5/LE, IV 2 mg/kg, 24 h): 1.41 | Blood:Plasma Ratio (Group 5/LE, IV 2 mg/kg, 72 h): 1.25 | Blood:Plasma Ratio (Group 6/SD, PO 15 mg/kg, 2 h): 0.64 | Blood:Plasma Ratio (Group 6/SD, PO 15 mg/kg, 24 h): 0.78 | Blood:Plasma Ratio (Group 7/LE, PO 15 mg/kg, 1 h): 1.13 | Blood:Plasma Ratio (Group 7/LE, PO 15 mg/kg, 2 h): 0.98 | Blood:Plasma Ratio (Group 7/LE, PO 15 mg/kg, 4 h): 0.80 | Blood:Plasma Ratio (Group 7/LE, PO 15 mg/kg, 8 h): 0.76 | Blood:Plasma Ratio (Group 7/LE, PO 15 mg/kg, 24 h): 0.87 | Blood to Plasma Ratio (IV infusion, 1 to 24 hours after start): 0.89-1.46 | Blood to plasma ratio, median (IV or oral): 1.00 | Plasma AUClast (LE rats, 15 mg/kg PO): 21.0 μg equiv·h/mL | Plasma Cmax of total radioactivity (LE rats, 15 mg/kg PO): 1.5 μg equiv/mL | Plasma Tmax (LE rats, 15 mg/kg PO): 8 h | Plasma concentration at 24 h post-dose (LE rats, 15 mg/kg PO): 0.180 μg equiv/mL | Blood to Plasma Ratio (PO, LE rats, 1 h to 24 h): 0.76-1.13 | AUCall [11]: 64.448 μg equiv-h/mL | AUCinf—obs [11]: 65.292 μg equiv-h/mL | AUClast [11]: 64.448 μg equiv-h/mL | Cmax [11]: 10.297 μg equiv/mL | Tmax [11]: 2 h | t1/2 [11]: 13.0 h | Plasma AUClast [12]: 64.4 μg equiv·h/mL | Plasma Cmax of total radioactivity [12]: 10.3 μg equiv/mL | Plasma Tmax [12]: 2 h | Plasma concentration at 72 h post-dose [12]: 0.045 μg equiv/mL | Plasma t1/2 [12]: 13.0 h | Oral bioavailability of radioactivity (AUCall PO/AUCall IV) (blood): 48% | Radioactive bioavailability (oral): approximately 50% | Blood:Plasma Ratio (oral administration, up to 24 h (Groups 6-7)): 0.64-1.13 | Oral bioavailability of radioactivity (AUCall PO/AUCall IV) (plasma): 61%
